Results taken from ChEMBL document CHEMBL4477222, “Discovery of Novel Thiophene-Based, Thumb Pocket 2 Allosteric Inhibitors of the Hepatitis C NS5B Polymerase with Improved Potency and Physicochemical Profiles” (J Med Chem, 2016).
pEC50: −log10 of the molar value. Values after ≈ are worked out from the molar mass of the structure shown. Active and inactive are the calls of the source. The rule behind the calls is not given here.

Experiments:
[1] = Metabolic stability in monkey liver microsomal S9 fraction assessed as compound remaining at 1 uM after 2 hrs in presence of NADPH; format: ADME, subcellular, Macaca mulatta; details: rhesus monkey, read-out: Stability
[2] = Half life in monkey at 1 mg/kg, iv through bolus administration; format: ADME, organism-based, Macaca mulatta; details: rhesus monkey, in vivo
[3] = system: Nonstructural protein 5A (Hepatitis C virus), Q5L478 [UNDEFINED MUTATION]; test: Inhibition of BMS-790052-resistant HCV genotype 1a NS5A Y93N mutant; details: Hepatitis C virus subtype 1a
[4] = AUC (0 to infinity) in dog at 3 mg/kg, po; format: ADME, organism-based, Canis lupus familiaris; design: dose 3 mg/kg, time infinity, route oral; details: in vivo
[5] = system: Nonstructural protein 5A (Hepatitis C virus), Q5L478 [UNDEFINED MUTATION]; test: Inhibition of BMS-790052-resistant HCV genotype 1a NS5A M28T mutant; details: Hepatitis C virus subtype 1a
[6] = Metabolic stability in human liver microsomal S9 fraction assessed as compound remaining at 1 uM after 2 hrs in presence of NADPH/UDPGA; format: ADME, subcellular; details: read-out: Stability
[7] = system: NS3 protease (Hepacivirus C), C1KIQ2 [R155K]; test: Inhibition of telaprevir-resistant HCV NS3 protease R155K mutant; details: Hepacivirus hominis
[8] = Solubility of the compound in FeSSIF at pH 5.2; format: physicochemical
[9] = Half life in Sprague-Dawley rat at 1 mg/kg, iv through bolus administration; format: ADME, organism-based; details: in vivo
[10] = biological target: Cytochrome P450 3A4 (Homo sapiens, UniProt P08684); test: Drug metabolism in human liver S9 fraction assessed as CYP3A4-mediated metabolite formation after 1 hr; format: ADME, subcellular; details: s9, 1 h
[11] = Volume of distribution in steady state in dog at 1 mg/kg, iv through bolus administration; format: ADME, organism-based, Canis lupus familiaris; details: in vivo, read-out: Vdss
[12] = Metabolic stability in human hepatocytes assessed as compound remaining at 10 uM after 2 hrs; format: ADME, cell-based, Hepatocyte; details: read-out: Stability
[13] = system: NS3 protease (Hepacivirus C), C1KIQ2 [V36M]; test: Inhibition of telaprevir-resistant HCV NS3 protease V36M mutant; details: Hepacivirus hominis
[14] = system: Nonstructural protein 5A (Hepatitis C virus), Q5L478 [UNDEFINED MUTATION]; test: Inhibition of BMS-790052-resistant HCV genotype 1b NS5A Y93H mutant; details: Hepatitis C virus subtype 1b
[15] = system: Nonstructural protein 5A (Hepatitis C virus), Q5L478 [UNDEFINED MUTATION]; test: Inhibition of BMS-790052-resistant HCV genotype 1a NS5A L31V mutant; details: Hepatitis C virus subtype 1a
[16] = Permeability from apical to basolateral side in human Caco2 cells; format: ADME, cell-based; details: Caco-2, read-out: permeability
[17] = Drug excretion in rat feces; format: ADME; details: in vivo
[18] = Cytotoxicity against human Huh7ET cells assessed as reduction in cell viability after 4 days; format: cell-based
[19] = system: NS3 protease (Hepacivirus C), C1KIQ2 [R155T]; test: Inhibition of telaprevir-resistant HCV NS3 protease R155T mutant; details: Hepacivirus hominis
[20] = Oral bioavailability in Fischer 344 rat at 3 mg/kg; format: ADME, organism-based; details: in vivo
[21] = Ratio of drug level in liver to heart in Sprague-Dawley rat at 10 mg/kg, po; format: ADME, organism-based; details: in vivo
[22] = Drug excretion in rat bile; format: ADME, tissue-based; details: in vivo
[23] = system: Nonstructural protein 5A (Hepatitis C virus), Q5L478 [UNDEFINED MUTATION]; test: Inhibition of BMS-790052-resistant HCV genotype 1a NS5A Y93H mutant; details: Hepatitis C virus subtype 1a
[24] = system: Nonstructural protein 5A (Hepatitis C virus), Q5L478 [UNDEFINED MUTATION]; test: Inhibition of BMS-790052-resistant HCV genotype 1a NS5A P32L mutant; details: Hepatitis C virus subtype 1a
[25] = biological target: DNA polymerase beta (Homo sapiens) (UniProt P06746); test: Inhibition of human DNA polymerase-beta by fluorescence/radiometric assay
[26] = biological target: RNA-directed RNA polymerase (Hepacivirus hominis, UniProt O39930, M423V); test: Inhibition of HCV genotype 1a NS5B M423V mutant; design: species or system Hepatitis C virus subtype 1a
[27] = system: MDCK; test: Ratio of permeability in MDCK cells expressing OATP1B1 to permeability in wild type MDCK cells; format: ADME, cell-based, Canis lupus familiaris; details: dog
[28] = biological target: RNA-directed RNA polymerase (Hepacivirus hominis, UniProt O39930, M423T); test: Inhibition of HCV genotype 1a NS5B M423T mutant; design: species or system Hepatitis C virus subtype 1a
[29] = Drug uptake in Sprague-Dawley rat plasma at 10 mg/kg, po administered as single dose; format: ADME, organism-based; details: in vivo
[30] = Metabolic stability in dog hepatocytes assessed as compound remaining at 10 uM after 2 hrs; format: ADME, cell-based, Canis lupus familiaris, Hepatocyte; details: read-out: Stability
[31] = AUC (0 to infinity) in Fischer 344 rat at 1 mg/kg, iv through bolus administration; format: ADME, organism-based; design: dose 1 mg/kg, time infinity, route intravenous; details: in vivo
[32] = Drug uptake in Sprague-Dawley rat liver at 10 mg/kg, po administered as single dose; format: ADME, organism-based; details: in vivo
[33] = biological target: DNA polymerase alpha catalytic subunit (Homo sapiens) (UniProt P09884); test: Inhibition of human DNA polymerase-alpha by fluorescence/radiometric assay
[34] = biological target: Nonstructural protein 5A (Hepatitis C virus) (UniProt Q5L478); test: Ratio of EC50 for HCV genotype 1b NS5A infected in human l389lucubi- neo/NS3-375.1-containing Huh7ET cells in presence of 40% human serum to EC50 for HCV genotype 1b NS5A infected in human l389lucubi- neo/NS3-375.1-containing Huh7ET cells; details: Hepatitis C virus subtype 1b
[35] = system: Nonstructural protein 5A (Hepatitis C virus), Q5L478 [Y93C]; test: Inhibition of BMS-790052-resistant HCV genotype 1a NS5A Y93C mutant; details: Hepatitis C virus subtype 1a
[36] = AUC (0 to infinity) in Sprague-Dawley rat at 3 mg/kg, po; format: ADME, organism-based; design: dose 3 mg/kg, route oral, time infinity; details: in vivo
[37] = Drug level in rat plasma; format: ADME, cell-free
[38] = system: NS3 (Hepatitis C virus), A3EZJ3 [R155K,V36M]; test: Inhibition of telaprevir-resistant HCV NS3 protease V36M/R155K double mutant; details: Hepacivirus hominis
[39] = Permeability from basolateral to apical side in human Caco2 cells; format: ADME, cell-based; details: Caco-2, read-out: permeability
[40] = species on record: Homo sapiens; test: Inhibition of human DNA polymerase-gamma by radiometric assay
[41] = system: Nonstructural protein 5A (Hepatitis C virus), Q5L478 [UNDEFINED MUTATION]; test: Inhibition of BMS-790052-resistant HCV genotype 1a NS5A Q30R mutant; details: Hepatitis C virus subtype 1a
[42] = biological target: RNA-directed RNA polymerase (Hepacivirus hominis, UniProt O39930, M423I); test: Inhibition of HCV genotype 1a NS5B M423I mutant; design: species or system Hepatitis C virus subtype 1a
[43] = Half life in dog at 3 mg/kg, po; format: ADME, organism-based, Canis lupus familiaris; details: in vivo
[44] = Volume of distribution at steady state in Sprague-Dawley rat at 1 mg/kg, iv through bolus administration; format: ADME, organism-based; details: in vivo, read-out: Vdss
[45] = Oral bioavailability in dog at 3 mg/kg; format: ADME, organism-based, Canis lupus familiaris; details: in vivo
[46] = Solubility of the compound in FaSSIF at pH 6.3; format: physicochemical
[47] = AUC (0 to infinity) in Sprague-Dawley rat at 1 mg/kg, iv through bolus administration; format: ADME, organism-based; design: dose 1 mg/kg, route intravenous, time infinity; details: in vivo
[48] = system: Hepatocyte; test: Change in CYP3A4 mRNA levels in hepatocytes (unknown origin); format: ADME, cell-based
[49] = Cmax in dog at 3 mg/kg, po; format: ADME, organism-based, Canis lupus familiaris; design: dose 3 mg/kg, route oral; details: in vivo
[50] = Metabolic stability in human liver microsomal S9 fraction assessed as compound remaining at 1 uM after 2 hrs in presence of NADPH; format: ADME, subcellular; details: read-out: Stability
[51] = system: NS3 protease (Hepacivirus C), C1KIQ2 [T54A]; test: Inhibition of telaprevir-resistant HCV NS3 protease T54A mutant; details: Hepacivirus hominis
[52] = Half life in Fischer 344 rat at 1 mg/kg, iv through bolus administration; format: ADME, organism-based; details: in vivo

CC(C)(C)C#Cc1cc(N(CC(=O)N2CCOCC2)C(=O)[C@H]2CC[C@H](C)CC2)c(C(=O)O)s1
remaining at 2 h, 1 µM [1]: 19%
half-life [2]: 2.2 h
inhibition [3]: Active
AUC(0-inf) [4]: 2340 ng·h/mL
inhibition [5]: Active
remaining at 2 h, 1 µM [6]: 73%
inhibition [7]: Active
solubility [8]: 800 µg/mL (≈ 1690 µM)
half-life [9]: 2.35 h
Drug metabolism [10]: < 5%
Vd [11]: 1.57 L/kg
remaining at 2 h, 10 µM [12]: 77%
inhibition [13]: Active
inhibition [14]: Active
inhibition [15]: Active
Papp A→B [16]: 0.7 ×10⁻⁶ cm/s
Drug excretion [17]: Metabolite_Detected
CC50 at 96 h [18]: > 20000 nM
inhibition [19]: Active
bioavailability [20]: 6.5%
Ratio [21]: 10
Drug excretion [22]: Metabolite_Detected
inhibition [23]: Active
inhibition [24]: Active
inhibition [25]: inactive
pEC50 [26]: 6.92
Ratio [27]: 3
pEC50 [28]: 6.55
Drug uptake [29]: Active
remaining at 2 h, 10 µM [30]: 70%
AUC(0-inf) [31]: 1580 ng·h/mL
Drug uptake [32]: Active
inhibition [33]: inactive
Ratio EC50 [34]: 10 to 20
inhibition [35]: Active
AUC(0-inf) [36]: 8860 ng·h/mL
Drug uptake [37]: Active
inhibition [38]: Active
Papp B→A [39]: 9.8 ×10⁻⁶ cm/s
inhibition [40]: inactive
inhibition [41]: Active
pEC50 [42]: 7.05
half-life [43]: 6.6 h
Vd [44]: 1.55 L/kg
bioavailability [45]: 57.3%
solubility [46]: 1700 µg/mL (≈ 3580 µM)
AUC [47]: 4270 ng·h/mL
Activity [48]: Non-Toxic
Cmax [49]: 1550 ng/mL
remaining at 2 h, 1 µM [50]: 76%
inhibition [51]: Active
half-life [52]: 1.67 h
